Patent publication US11466044B2 (WAYNE STATE UNIVERSITY, priority 2017, dated 2022)
Values after ≈ are worked out from the molar mass of the structure shown. Read-outs that look alike come from different tables or passages of the source.

Experiments:
[1] = system: A1555G mutant mitochondrial ribosome (human chimeric); assay: in-vitro translation assay, human chimeric ribosomes, A1555G mutant mitochondrial decoding site; assay type: biochemical; details: for Selectivity for Binding to the Bacterial Ribosome over the Mutant Mitochondrial Ribosome: Table 3 (Example 3)
Source text: (§1) The antiribosomal activity of these compounds was investigated with cell-free translation assays using both wild type bacterial ribosomes and hybrid ribosomes carrying eukaryotic decoding A sites enabling the prediction of selectivity.

[2] = system: mitochondrial ribosome (human chimeric); assay type: biochemical; details: for Selectivity for Binding to the Bacterial Ribosome over the Mitochondrial Ribosome: Table 3 (Example 3)
Source text: as §1

[3] = system: cytosolic ribosome (human chimeric); assay type: biochemical; details: for Selectivity for Binding to the Bacterial Ribosome over the Cytosolic Ribosome: Table 3 (Example 3)
Source text: as §1

[4] = system: wild type bacterial ribosomes; assay: in-vitro translation assay, bacterial ribosomes; assay type: biochemical
Source text: as §1

[5] = system: E coli carrying specific resistance determinants; assay: MIC by broth microdilution, E coli carrying specific resistance determinants; assay type: cell-based; details: for MIC: Escherichia coli
P aeruginosa = assay: MIC by broth microdilution, P aeruginosa isolates; assay type: cell-based, Pseudomonas aeruginosa
E coli wild type = assay: MIC by broth microdilution, wild type E coli; assay type: cell-based; details: for MIC: Escherichia coli; for antibacterial activity, in words: MRSA and E coli, compared with the parent compound
MRSA = assay: MIC by broth microdilution, MRSA isolates; assay type: cell-based; details: for MIC: Staphylococcus aureus, MRSA
[6] = system: Enterobacter cloacae AG290; assay: MIC by broth microdilution, Enterobacter cloacae; assay type: cell-based; details: strain AG290 Enterobacter cloacae; read-out: MIC AG290 E. cloacae
M. smegmatis SZ380 = assay: MIC by broth microdilution, M. smegmatis; details: for MIC: Mycolicibacterium smegmatis
[7] = system: Acinetobacter baumannii pittii AG225; assay: MIC by broth microdilution, Acinetobacter baumannii; assay type: cell-based; details: strain AG225 Acinetobacter baumannii pittii
M. abscessus = assay: MIC by broth microdilution, M. abscessus; assay type: cell-based; details: Mycobacteroides abscessus
[8] = system: Klebsiella pneumonia AG215; assay: MIC by broth microdilution, Klebsiella pneumonia; assay type: cell-based; details: strain AG215 Klebsiella pneumonia

## NCC1OC(OC2C(CO)OC(OC3C(O)C(N)CC(N)C3OC3OC4C(O)CCOC4C(O)C3N)C2O)C(N)C(O)C1O (centres unmarked) [DC210]
[1]; human mitochondrial decoding site with A1555G point mutation, read-out: IC50 Mitoch. A1555G
  IC50: 44 µM
[2]; ribosomes with a human mitochondrial decoding site, read-out: IC50 Mitoch.
  IC50: 329 µM
[3]; ribosomes with a human cytosolic decoding site, read-out: IC50 Cytosolic
  IC50: 50 µM
[4]; Mycobacterium smegmatis ribosomes, read-out: IC50 Bacterial
  IC50: 0.04 µM
[5]; E. coli strain AG036, ANT(4′,4′′)
  MIC AG036 ANT(4′,4′′): 2 mg/L (≈ 3.12 µM)
[5]; E. coli strain AG037, APH(3′)-III
  MIC AG037 APH(3′)-III: >128 mg/L
[5]; E. coli strain pH421, APH(3)-I
  MIC pH421 APH(3)-I: >128 μg/ml
[5]; E. coli strain pH422, APH(3′)-II
  MIC pH422 APH(3′)-II: 32 μg/ml
[5]; E. coli strain pH423, APH(3′)-VI
  MIC pH423 APH(3′)-VI: 4 μg/ml
P aeruginosa; clinical isolate AG031, APH(3′)-II
  MIC AG031 P. aer. APH(3′)-II: 64 mg/L (≈ 99.7 µM)
E coli wild type; E. coli strain pH430, WT
  MIC pH430 WT: 2-4 μg/ml
E coli wild type; clinical isolate AG001, WT
  MIC AG001 E. coli WT: 4 mg/L (≈ 6.23 µM)
MRSA; clinical isolate AG038
  MIC AG038 MRSA: 4 mg/L (≈ 6.23 µM)

## NCC1OC(OC2C(CO)OC(OC3C(O)C(N)CC(N)C3OC3OC(CN)C(O)C(O)C3NC=O)C2O)C(N)C(O)C1O (centres unmarked) [Compound 182, 2′-N-Formamido-neomycin]
[1]
  Selectivity for Binding to the Bacterial Ribosome over the Mutant Mitochondrial Ribosome: 108
[2]
  Selectivity for Binding to the Bacterial Ribosome over the Mitochondrial Ribosome: 463
[2]; mitochondrial, Table 4 (Example 3), read-out: IC50 Mit
  IC50: 54 µM
[3]
  Selectivity for Binding to the Bacterial Ribosome over the Cytosolic Ribosome: 1093
[3]; cytosolic, Table 4 (Example 3), read-out: IC50 Cyt
  IC50: 127 µM
[6]
  MIC: 2 mg/L (≈ 3.11 µM)
M. smegmatis SZ380; SZ380, read-out: MIC M. smegmatis SZ380 WT, SZ380 WT, Table 5 (Example 3)
  MIC: 1 mg/L (≈ 1.56 µM)
M. smegmatis SZ380; SZ380, read-out: MIC SZ380 M. smegmatis, strain SZ380 Mycobacterium smegmatis
  MIC: 1 mg/L (≈ 1.56 µM)
[4]; bacterial ribosome, Table 4 (Example 3), read-out: IC50 Bac
  IC50: 0.12 µM
[4]; compared with the parent compound
  selectivity for the bacterial ribosome over mitochondrial (wild type, A1555G mutant) and cytosolic ribosomes, in words: increased selectivity for the bacterial ribosome
[7]
  MIC: 2 mg/L (≈ 3.11 µM)
[5]; AAC(2′)
  effect of the AAC(2′) resistance determinant, in words: not susceptible to deactivation by AAC(2′)
[5]; read-out: MIC E coli AG106 AAC(2′)
  MIC: 2 mg/L (≈ 3.11 µM)
[5]; read-out: MIC E. coli AAC(2′) AG106
  MIC: 2 mg/L (≈ 3.11 µM)
[5]; read-out: MIC E. coli AAC(2′) pH434
  MIC: 8 to 16 mg/L (≈ 12.4 to 24.9 µM)
[5]; read-out: MIC E. coli AG106 AAC(2′)-Ia
  MIC: 2 mg/L (≈ 3.11 µM)
[5]; read-out: MIC E. coli pGB2armA armA
  MIC: 8 mg/L (≈ 12.4 µM)
[5]; read-out: MIC E. coli pH434 AAC(2′)-Ib
  MIC: 8 to 16 mg/L (≈ 12.4 to 24.9 µM)
M. abscessus; ATCC19977, ATCC 19977 WT, Table 5 (Example 3), read-out: MIC M. abscessus ATCC 19977 WT
  MIC: 16 mg/L (≈ 24.9 µM)
M. abscessus; read-out: MIC M. abscessus engineered Δeis2
  MIC: 0.5 mg/L (≈ 0.778 µM)
M. abscessus; ATCC, Table 4 (Example 3), read-out: MIC M. abscessus ATCC
  MIC: 16 mg/L (≈ 24.9 µM)
M. abscessus; Clin. Isol., Table 4 (Example 3), read-out: MIC M. abscessus Clin. Isol.
  MIC: 32 mg/L (≈ 49.8 µM)
P aeruginosa; strain AG220 Pseudomonas aeruginosa ATCC27853, read-out: MIC AG220 P. aerugin
  MIC: > 64 mg/L
E coli wild type; AG006 Wild type, Table 2 (Example 3), read-out: MIC E coli AG006 Wild type
  MIC: 2 mg/L (≈ 3.11 µM)
E coli wild type; AG104 Wild type, Table 2 (Example 3), read-out: MIC E coli AG104 Wild type
  MIC: 2 to 4 mg/L (≈ 3.11 to 6.22 µM)
E coli wild type; ATCC25922, strain AG212 E. coli (ATCC25922), read-out: MIC AG212 E. coli
  MIC: 4 mg/L (≈ 6.22 µM)
E coli wild type; WT, Table 4 (Example 3), read-out: MIC E. coli WT
  MIC: 2 mg/L (≈ 3.11 µM)
E coli wild type; WT, Table 5 (Example 3), read-out: MIC E. coli WT
  MIC: 2 mg/L (≈ 3.11 µM)
E coli wild type; clinical isolate AG001, Table 1 (Example 3), read-out: MIC E coli AG001
  MIC: 4 to 8 mg/L (≈ 6.22 to 12.4 µM)
E coli wild type; clinical isolate AG003, Table 1 (Example 3), read-out: MIC E coli AG003
  MIC: 4 to 8 mg/L (≈ 6.22 to 12.4 µM)
E coli wild type; clinical isolate AG055, Table 1 (Example 3), read-out: MIC E coli AG055
  MIC: 2 mg/L (≈ 3.11 µM)
E coli wild type
  antibacterial activity, in words: retains most of the activity of the parent
MRSA; clinical isolate AG038, Table 1 (Example 3), read-out: MIC MRSA AG038
  MIC: 2 to 4 mg/L (≈ 3.11 to 6.22 µM)
MRSA; clinical isolate AG039, Table 1 (Example 3), read-out: MIC MRSA AG039
  MIC: > 32 mg/L
MRSA; clinical isolate AG042, Table 1 (Example 3), read-out: MIC MRSA AG042
  MIC: > 32 mg/L
[8]; Klebsiella pneumoniae, read-out: MIC AG215 K. pneumon
  MIC: 1 to 2 mg/L (≈ 1.56 to 3.11 µM)

## CC(=O)O.NCC(=O)NC1C(OC2C(N)CC(N)C(O)C2OC2OC(CO)C(OC3OC(CN)C(O)C(O)C3N)C2O)OC(CN)C(O)C1O (centres unmarked) [Compound 175, 2′-N-(2-Aminoacetyl)-neomycin acetate salt]
[1]
  Selectivity for Binding to the Bacterial Ribosome over the Mutant Mitochondrial Ribosome: 153
[2]
  Selectivity for Binding to the Bacterial Ribosome over the Mitochondrial Ribosome: 67
[3]
  Selectivity for Binding to the Bacterial Ribosome over the Cytosolic Ribosome: 155
M. smegmatis SZ380; SZ380 WT, Table 5 (Example 3)
  MIC M. smegmatis SZ380 WT: 0.25 mg/L
M. smegmatis SZ380; strain SZ380 Mycobacterium smegmatis
  MIC SZ380 M. smegmatis: 0.25 mg/L
[7]
  MIC AG225 A. baumannii: 8 to 16 mg/L
[5]; AG106 AAC(2′)-Ia, Table 5 (Example 3)
  MIC E. coli AG106 AAC(2′)-Ia: 16 to 32 mg/L
[5]; AG106 AAC(2′), Table 2 (Example 3)
  MIC E coli AG106 AAC(2′): 16 to 32 mg/L
[5]; pGB2armA armA, Table 5 (Example 3)
  MIC E. coli pGB2armA armA: 16 μg/ml
P aeruginosa; strain AG220 Pseudomonas aeruginosa ATCC27853
  MIC AG220 P. aerugin: >32 mg/L
E coli wild type; AG006 Wild type, Table 2 (Example 3)
  MIC E coli AG006 Wild type: 8 mg/L
E coli wild type; AG104 Wild type, Table 2 (Example 3)
  MIC E coli AG104 Wild type: 16 mg/L
E coli wild type
  antibacterial activity, in words: very substantial loss of activity
E coli wild type; WT, Table 5 (Example 3)
  MIC E. coli WT: 8 to 16 mg/L
E coli wild type; clinical isolate AG001, Table 1 (Example 3)
  MIC E coli AG001: 16 mg/L
E coli wild type; clinical isolate AG003, Table 1 (Example 3)
  MIC E coli AG003: 32 mg/L
E coli wild type; clinical isolate AG055, Table 1 (Example 3)
  MIC E coli AG055: 16 mg/L
E coli wild type; strain AG212 E. coli (ATCC25922)
  MIC AG212 E. coli: 16 mg/L
MRSA; clinical isolate AG038, Table 1 (Example 3)
  MIC MRSA AG038: 4 mg/L
MRSA; clinical isolate AG039, Table 1 (Example 3)
  MIC MRSA AG039: >32 mg/L
MRSA; clinical isolate AG042, Table 1 (Example 3)
  MIC MRSA AG042: >32 mg/L
[8]
  MIC AG215 K. pneumon: 8 mg/L
